How the values were obtained:
Type in all cases: in vivo
Spurge = test: Pre-emergent herbicidal evaluation on Spurge (field plots, granular fertilizer compositions)
Protocol: Test compositions were prepared of i) a granular fertilizer and 2,4-dinitro-N^3,N^3-dipropyl-6-(trifluoromethyl)-1,3-benzenediamine, and ii) a granular fertilizer and N-[2,4-dichloro-5-[4-(difluoromethyl)-4,5-dihydro-3-methyl-5-oxo-1H-1,2,4-triazol-1-yl]phenyl]methanesulfonamide. The test compositions were prepared to provide the desired application rates of 2,4-dinitro-N^3,N^3-dipropyl-6-(trifluoromethyl)-1,3-benzenediamine and N-[2,4-dichloro-5-[4-(difluoromethyl)-4,5-dihydro-3-methyl-5-oxo-1H-1,2,4-triazol-1-yl]phenyl]methanesulfonamide. In addition, test compositions were prepared containing mixtures of 2,4-dinitro-N^3,N^3-dipropyl-6-(trifluoromethyl)-1,3-benzenediamine and N-[2,4-dichloro-5-[4-(difluoromethyl)-4,5-dihydro-3-methyl-5-oxo-1H-1,2,4-triazol-1-yl]phenyl]methanesulfonamide with granular fertilizer that provided the specified rates of the two herbicides.
The experimental design used randomized plots with one pre-emergent treatment either the day of planting or the day after planting and three to four replications per test trial. The size of each experimental plot was 6 feet by 30 feet.
Percent control of the weed (Spurge) was evaluated and averaged in each experimental plot at 70 days after treatment (DAT) of each test rate.
(§1) The results, shown as an average of the replications, were compared with results observed in untreated control plots in the same trials.

Goose Grass = test: Pre-emergent herbicidal evaluation on Goose Grass (field plots, spray)
Protocol: (§2) Test compositions were prepared by dilution of a 65% water-soluble granule (65 WG) formulation of 2,4-dinitro-N^3,N^3-dipropyl-6-(trifluoromethyl)-1,3-benzenediamine in a spray tank that provided the appropriate application rate of 2,4-dinitro-N^3,N^3-dipropyl-6-(trifluoromethyl)-1,3-benzenediamine. Test compositions were also prepared by dilution of a 80% wettable powder (80 WP) formulation of N-[2,4-dichloro-5-[4-(difluoromethyl)-4,5-dihydro-3-methyl-5-oxo-1H-1,2,4-triazol-1-yl]phenyl]methanesulfonamide in a spray tank that provided the appropriate application rate of N-[2,4-dichloro-5-[4-(difluoromethyl)-4,5-dihydro-3-methyl-5-oxo-1H-1,2,4-triazol-1-yl]phenyl]methanesulfonamide. In addition, test compositions were prepared containing mixtures of a 65% water-soluble granule (65 WG) formulation of 2,4-dinitro-N^3,N^3-dipropyl-6-(trifluoromethyl)-1,3-benzenediamine and a 80% wettable powder (80 WP) formulation of N-[2,4-dichloro-5-[4-(difluoromethyl)-4,5-dihydro-3-methyl-5-oxo-1H-1,2,4-triazol-1-yl]phenyl]methanesulfonamide with water that provided the specified rates of the two herbicides.
(§3) The application of each test composition was performed with pressurized back-pack sprayers, calibrated to spray between 10 and 15 gallons per acre.
(§4) The experimental design used randomized plots with one pre-emergent treatment either the day of planting or the day after planting and four to eight replications per test trial. The size of each experimental plot was 6 feet by 30 feet.
Percent control of the weed (Goose Grass) was evaluated and averaged in each experimental plot at 14 days after treatment (DAT) of each test rate.
as §1

Johnson Grass = test: Pre-emergent herbicidal evaluation on Johnson Grass (field plots, spray)
Protocol: as §2, §3, §4
Percent control of the weed (Johnson Grass) was evaluated and averaged in each experimental plot at 14 days after treatment (DAT) of each test rate.
as §1

Barnyard Grass = test: Pre-emergent herbicidal evaluation on Barnyard Grass (field plots, spray)
Protocol: as §2, §3, §4
Percent control of the weed (Barnyard Grass) was evaluated and averaged in each experimental plot at 14 days after treatment (DAT) of each test rate.
as §1

Green Foxtail = test: Pre-emergent herbicidal evaluation on Green Foxtail (field plots, spray)
Protocol: as §2, §3, §4
Percent control of the weed (Green Foxtail) was evaluated and averaged in each experimental plot at 14 days after treatment (DAT) of each test rate.
as §1

Annual Blue Grass = test: Pre-emergent herbicidal evaluation on Annual Blue Grass (field plots, spray)
Protocol: as §2, §3, §4
Percent control of the weed (Annual Blue Grass) was evaluated and averaged in each experimental plot at 14 days after treatment (DAT) of each test rate.
as §1

SMILES: Cc1nn(-c2cc(NS(C)(=O)=O)c(Cl)cc2Cl)c(=O)n1C(F)F [A, N-[2,4-dichloro-5-[4-(difluoromethyl)-4,5-dihydro-3-methyl-5-oxo-1H-1,2,4-triazol-1-yl]phenyl]methanesulfonamide]
- Control @ 70 DAT (Spurge; 0.125 lb AI/Acre): 0%
- Control @ 70 DAT (Spurge; 0.250 lb AI/Acre): 6%
- Control @ 70 DAT (Spurge; 0.375 lb AI/Acre): 6%
- Control @ 14 DAT (Goose Grass; 0.06 lb AI/Acre): 49%
- Control @ 14 DAT (Goose Grass; 0.12 lb AI/Acre): 69%
- Control @ 14 DAT (Goose Grass; 0.19 lb AI/Acre): 77%
- Control @ 14 DAT (Goose Grass; 0.25 lb AI/Acre): 79%
- Control @ 14 DAT (Johnson Grass; 0.06 lb AI/Acre): 42%
- Control @ 14 DAT (Johnson Grass; 0.12 lb AI/Acre): 67%
- Control @ 14 DAT (Johnson Grass; 0.19 lb AI/Acre): 65%
- Control @ 14 DAT (Johnson Grass; 0.25 lb AI/Acre): 70%
- Control @ 14 DAT (Barnyard Grass; 0.06 lb AI/Acre): 55%
- Control @ 14 DAT (Barnyard Grass; 0.12 lb AI/Acre): 80%
- Control @ 14 DAT (Barnyard Grass; 0.19 lb AI/Acre): 88%
- Control @ 14 DAT (Barnyard Grass; 0.25 lb AI/Acre): 93%
- Control @ 14 DAT (Green Foxtail; 0.06 lb AI/Acre): 62%
- Control @ 14 DAT (Green Foxtail; 0.12 lb AI/Acre): 76%
- Control @ 14 DAT (Green Foxtail; 0.19 lb AI/Acre): 93%
- Control @ 14 DAT (Green Foxtail; 0.25 lb AI/Acre): 97%
- Control @ 14 DAT (Annual Blue Grass; 0.06 lb AI/Acre): 37%
- Control @ 14 DAT (Annual Blue Grass; 0.12 lb AI/Acre): 47%
- Control @ 14 DAT (Annual Blue Grass; 0.19 lb AI/Acre): 62%
- Control @ 14 DAT (Annual Blue Grass; 0.25 lb AI/Acre): 60%

SMILES: CCCN(CCC)c1c([N+](=O)[O-])cc(C(F)(F)F)c(N)c1[N+](=O)[O-] [B, 2,4-dinitro-N^3,N^3-dipropyl-6-(trifluoromethyl)-1,3-benzenediamine]
- Control @ 70 DAT (Spurge; 0.50 lb AI/Acre): 42%
- Control @ 70 DAT (Spurge; 0.75 lb AI/Acre): 70%
- Control @ 70 DAT (Spurge; 1.00 lb AI/Acre): 60%
- Control @ 14 DAT (Goose Grass; 0.12 lb AI/Acre): 76%
- Control @ 14 DAT (Goose Grass; 0.25 lb AI/Acre): 99%
- Control @ 14 DAT (Goose Grass; 0.50 lb AI/Acre): 100%
- Control @ 14 DAT (Johnson Grass; 0.12 lb AI/Acre): 42%
- Control @ 14 DAT (Johnson Grass; 0.25 lb AI/Acre): 48%
- Control @ 14 DAT (Johnson Grass; 0.50 lb AI/Acre): 77%
- Control @ 14 DAT (Barnyard Grass; 0.12 lb AI/Acre): 63%
- Control @ 14 DAT (Barnyard Grass; 0.25 lb AI/Acre): 69%
- Control @ 14 DAT (Barnyard Grass; 0.50 lb AI/Acre): 86%
- Control @ 14 DAT (Green Foxtail; 0.12 lb AI/Acre): 87%
- Control @ 14 DAT (Green Foxtail; 0.25 lb AI/Acre): 91%
- Control @ 14 DAT (Green Foxtail; 0.50 lb AI/Acre): 95%
- Control @ 14 DAT (Annual Blue Grass; 0.12 lb AI/Acre): 45%
- Control @ 14 DAT (Annual Blue Grass; 0.25 lb AI/Acre): 38%
- Control @ 14 DAT (Annual Blue Grass; 0.50 lb AI/Acre): 58%
